Reference: patent US20160101148A1, “TREATMENT AND PREVENTION OF BACTERIAL SKIN INFECTIONS USING ORITAVANCIN” (priority 2013, published 2016)
Marks after values point to notes of the source that are not given here.

Tests used:
[1] = system: ABSSSI suspected or proven to be due to a gram-positive pathogen, including MRSA; test: SOLO I Phase 3 trial, efficacy: single dose IV oritavancin versus IV vancomycin for 7 to 10 days; format: in vivo, human; settings: for Difference in lesion size reduction ≧20% rate (oritavancin minus vancomycin) / Difference in primary efficacy endpoint rate (oritavancin minus vancomycin): ECE; for Lesion Size Reduction ≧20% From Baseline / Primary efficacy endpoint response rate (cessation of spread, absence of fever, no rescue antibiotics): ECE 48 to 72 hours; for Difference in investigator-assessed clinical cure rate (oritavancin minus vancomycin) / Difference in sustained clinical cure rate (oritavancin minus vancomycin): PTE; for Investigator-Assessed Clinical Cure / Sustained Clinical Cure: PTE 7 to 14 days after EOT
Method: The primary efficacy endpoint comprised: 1) cessation of spreading or reduction in the size of the baseline lesion, 2) absence of fever, and 3) no rescue antibiotic, at 48 to 72 hours, for the modified intent to treat population.
The study design was consistent with current guidelines from FDA (U.S. Food and Drug Administration. Guidance for Industry Acute Bacterial Skin and Skin Structure Infections: Developing Drugs for Treatment (DRAFT GUIDANCE). Available via Internet at the URL containing: fda.gov/downloads/Drugs/GuidanceComplianceRegulatoryInformation/Guidances/ucm071185.p df) and EMA (European Medicines Agency Committee for Medicinal Products for Human Use. Addendum to the note for guidance on evaluation of medicinal products indicated for treatment of bacterial infections (CHMP/EWP/558/95 REV 2) to address indication-specific clinical data (draft). 2012. Available via Internet at the URL containing: ema.europa.eu/docs/en_GB/document_library/Scientific_guideline/2012/07/WC500129443.pdf) and Foundation for National Institutes of Health guidance was considered for analyses (Talbot G H etl. Clin Infect Dis. 2012. 55(8):1114-1121). The protocol was approved by institutional review boards/ethics committees and all patients provided written informed consent. The study was conducted from January 2011 through October 2012 at 46 study centers in Mexico, Spain, Germany, Romania, Russia, Ukraine, Israel, India, and the United States. […] Aztreonam and metronidazole were permitted for gram-negative and anaerobic cover, respectively.
Clinical evaluations were performed at the following time points: Early Clinical Evaluation (ECE) at 48 to 72 hours after the initiation of the study drug infusion, End of Therapy (EOT) at Day 7 to Day 10 or the day the patient stopped study drug or changed to non-study drug therapy for primary ABSSSI, Day 10 Evaluation defined as 10 days after the initiation of the study drug infusion, Post Therapy Evaluation (PTE) at 7 to 14 days after the EOT visit, and Safety Follow-up at 60 days (+7 days) after the initiation of the study drug infusion. Safety data was reviewed by a data monitoring committee.
Eligible patients were to be at least 18 years of age with diagnosis of ABSSSI that was suspected or proven to be due to a gram-positive pathogen and which required at least 7 days of IV therapy. The diagnosis of ABSSSI was defined as wound infections (either traumatic or surgical in origin), cellulitis/erysipelas or major cutaneous abscess with surrounding erythema, edema, and/or induration of at least 75 cm^2. The onset of wound infections or cellulitis/erysipelas must have occurred within 7 days prior to randomization. Patients also had to present with signs and symptoms of systemic inflammation. Patients were not eligible to participate if they received systemic or topical antibacterial therapy with gram-positive activity within the preceding 14 days.
The primary efficacy endpoint was a composite outcome of 1) cessation of spreading or reduction in the size of the baseline lesion, 2) absence of fever, and 3) no rescue antibiotic medication at the ECE visit, for the mITT population.
The secondary efficacy outcomes were as follows: 1) Lesion area decrease by ≧20% from Baseline at ECE, 2) Investigator-Assessed Clinical Response at PTE, 3) Sustained Clinical Response at PTE.
The analyses were performed for patients who had lesion area assessments at baseline and ECE using the mITT and CE populations.
If a patient had clinical failure assessed beyond the PTE visit window, the patient was considered as a clinical failure. If a patient had clinical success assessed beyond the PTE visit window, a) and if the patient had clinical failure before the PTE visit, the patient was considered a clinical failure at PTE or b) if the patient had clinical success also before the PTE visit, the patient was considered a clinical success at PTE.

[2] = system: ABSSSI caused by susceptible gram-positive bacteria, including MRSA; test: SOLO I and SOLO II combined, efficacy; format: in vivo, human; settings: for FDA primary endpoint: Cessation of spread, absence of fever, no rescue antibiotics / ≧20% reduction of lesion area / FDA primary endpoint: Cessation of spread, absence of fever, no rescue antibiotics, number of patients / ≧20% reduction of lesion area, number of patients / % Difference (95% CI), FDA primary endpoint / % Difference (95% CI), ≧20% reduction of lesion area / EMA primary endpoint: Investigator-assessed clinical cure / EMA primary endpoint: Investigator-assessed clinical cure, number of patients / % Difference (95% CI), investigator-assessed clinical cure: SOLO I and SOLO II combined; for FDA primary endpoint: Cessation of spread, absence of fever, no rescue antibiotics / ≧20% reduction of lesion area / FDA primary endpoint: Cessation of spread, absence of fever, no rescue antibiotics, number of patients / ≧20% reduction of lesion area, number of patients / % Difference (95% CI), FDA primary endpoint / % Difference (95% CI), ≧20% reduction of lesion area: ECE; for % Difference (95% CI), FDA primary endpoint / % Difference (95% CI), ≧20% reduction of lesion area / % Difference (95% CI), investigator-assessed clinical cure: oritavancin vs vancomycin; for EMA primary endpoint: Investigator-assessed clinical cure / EMA primary endpoint: Investigator-assessed clinical cure, number of patients / % Difference (95% CI), investigator-assessed clinical cure: PTE
Excerpt: Complete results were obtained from a phase 3 clinical trial program of oritavancin (SOLO), which investigated the drug for the treatment of acute bacterial skin and skin structure infections (ABSSSI) caused by susceptible gram-positive bacteria, including methicillin-resistant Staphylococcus aureus (MRSA). SOLO I and SOLO II clinical trials were identical multicenter, double-blind, randomized clinical trials.
In microbiologically confirmed MRSA patients, efficacy was similar in both treatment groups; however, a higher proportion of MRSA-infected patients in the oritavancin group achieved the endpoint of greater than or equal to 20% reduction of lesion area at ECE (p value=0.032). Under the Special Protocol Assessment (SPA) agreed with the FDA, the protocols pre-specified that MRSA patients from the SOLO studies would be pooled for the evaluation of efficacy.
The combined SOLO studies represented 1,987 patients in an intent-to-treat population for evaluation of oritavancin in the treatment of ABSSSI in controlled clinical trials and assessed one of the largest subsets of patients with documented MRSA infection (405 patients).

[3] = confirmed MRSA, MicroITT, oritavancin n = 204, vancomycin n = 201
[4] = mITT, oritavancin n = 978, vancomycin n = 981

Compound: CN[C@H](CC(C)C)C(=O)N[C@H]1C(=O)N[C@@H](CC(N)=O)C(=O)N[C@H]2C(=O)N[C@H]3C(=O)N[C@H](C(=O)N[C@H](C(=O)O)c4cc(O)cc(O)c4-c4cc3ccc4O)[C@H](O[C@H]3C[C@](C)(N)[C@@H](O)[C@H](C)O3)c3ccc(c(Cl)c3)Oc3cc2cc(c3O[C@@H]2O[C@H](CO)[C@@H](O)[C@H](O)[C@H]2O[C@H]2C[C@](C)(NCc3ccc(-c4ccc(Cl)cc4)cc3)[C@@H](O)[C@H](C)O2)Oc2ccc(cc2Cl)[C@H]1O [Oritavancin, N^DISACC-(4-(4-chlorophenyl)benzyl)A82846B]
- Efficacy versus vancomycin for ECE and PTE endpoints ([1]; 10% non-inferiority margin): non-inferior to vancomycin
- Patients both early treatment responders (lesion size reduction of ≧20% at ECE) and clinical successes at PTE ([1]; CE population): more than 84%
- Difference in lesion size reduction ≧20% rate (oritavancin minus vancomycin) ([1]; CE): 1.9%
- Difference in primary efficacy endpoint rate (oritavancin minus vancomycin) ([1]; CE): 1.2%
- Lesion Size Reduction ≧20% From Baseline ([1]; CE): 90.6%
- Primary efficacy endpoint response rate (cessation of spread, absence of fever, no rescue antibiotics) ([1]; CE): 87.3%
- Difference in investigator-assessed clinical cure rate (oritavancin minus vancomycin) ([1]; CE): −1.3%
- Difference in sustained clinical cure rate (oritavancin minus vancomycin) ([1]; CE): −3.9%
- Investigator-Assessed Clinical Cure ([1]; CE): 91.9%
- Sustained Clinical Cure ([1]; CE): 79.4%
- Difference in lesion size reduction ≧20% rate (oritavancin minus vancomycin) ([1]; MRSA MicroE): 7.5%
- Difference in primary efficacy endpoint rate (oritavancin minus vancomycin) ([1]; MRSA MicroE): 1.8%
- Lesion Size Reduction ≧20% From Baseline ([1]; MRSA MicroE): 96.5%
- Primary efficacy endpoint response rate (cessation of spread, absence of fever, no rescue antibiotics) ([1]; MRSA MicroE): 88.4%
- Difference in investigator-assessed clinical cure rate (oritavancin minus vancomycin) ([1]; MRSA MicroE): −2.2%
- Difference in sustained clinical cure rate (oritavancin minus vancomycin) ([1]; MRSA MicroE): −2.8%
- Investigator-Assessed Clinical Cure ([1]; MRSA MicroE): 95.3%
- Sustained Clinical Cure ([1]; MRSA MicroE): 81.4%
- Difference in lesion size reduction ≧20% rate (oritavancin minus vancomycin) ([1]; MRSA MicroITT): 6.4%
- Difference in primary efficacy endpoint rate (oritavancin minus vancomycin) ([1]; MRSA MicroITT): 0.8%
- Lesion Size Reduction ≧20% From Baseline ([1]; MRSA MicroITT): 90.4%
- Primary efficacy endpoint response rate (cessation of spread, absence of fever, no rescue antibiotics) ([1]; MRSA MicroITT): 80.8%
- Lesion Size Reduction ≧20% From Baseline ([1]; MRSA MicroITT, listed as oritavancin): 90.4%
- Difference in investigator-assessed clinical cure rate (oritavancin minus vancomycin) ([1]; MRSA MicroITT): −0.3%
- Difference in sustained clinical cure rate (oritavancin minus vancomycin) ([1]; MRSA MicroITT): −0.7%
- Investigator-Assessed Clinical Cure ([1]; MRSA MicroITT): 82.7%
- Sustained Clinical Cure ([1]; MRSA MicroITT): 68.3%
- Difference in lesion size reduction ≧20% rate (oritavancin minus vancomycin) ([1]; mITT): 4.1%
- Difference in primary efficacy endpoint rate (oritavancin minus vancomycin) ([1]; mITT): 3.4%
- Lesion Size Reduction ≧20% From Baseline ([1]; mITT): 86.9%
- Primary efficacy endpoint response rate (cessation of spread, absence of fever, no rescue antibiotics) ([1]; mITT): 82.3%
- Lesion Size Reduction ≧20% From Baseline ([1]; mITT, listed as oritavancin): 86.9%
- Primary efficacy endpoint response rate (cessation of spread, absence of fever, no rescue antibiotics) ([1]; mITT, listed as oritavancin): 82.3%
- Difference in investigator-assessed clinical cure rate (oritavancin minus vancomycin) ([1]; mITT): −0.4%
- Difference in sustained clinical cure rate (oritavancin minus vancomycin) ([1]; mITT): −2.6%
- Investigator-Assessed Clinical Cure ([1]; mITT): 79.6%
- Sustained Clinical Cure ([1]; mITT): 67.2%
- Investigator-Assessed Clinical Cure ([1]; mITT, listed as oritavancin): 79.6%
- Sustained Clinical Cure ([1]; mITT, listed as oritavancin): 67.2%
- FDA primary endpoint: Cessation of spread, absence of fever, no rescue antibiotics ([2]; confirmed MRSA, MicroITT): 81.4%
- ≧20% reduction of lesion area ([2]; confirmed MRSA, MicroITT): 93.1%
- FDA primary endpoint: Cessation of spread, absence of fever, no rescue antibiotics, number of patients [2, 3]: 166
- ≧20% reduction of lesion area, number of patients [2, 3]: 190
- % Difference (95% CI), FDA primary endpoint ([2]; confirmed MRSA, MicroITT): 0.8 (−6.9, 8.4) %
- % Difference (95% CI), ≧20% reduction of lesion area ([2]; confirmed MRSA, MicroITT, p value = 0.032): 6.1 (0.5, 11.6)* %
- EMA primary endpoint: Investigator-assessed clinical cure ([2]; confirmed MRSA, MicroITT): 83.3%
- EMA primary endpoint: Investigator-assessed clinical cure, number of patients [2, 3]: 170
- % Difference (95% CI), investigator-assessed clinical cure ([2]; confirmed MRSA, MicroITT): −0.7 (−7.9, 6.4) %
- FDA primary endpoint: Cessation of spread, absence of fever, no rescue antibiotics ([2]; mITT): 81.2%
- ≧20% reduction of lesion area ([2]; mITT): 86.4%
- FDA primary endpoint: Cessation of spread, absence of fever, no rescue antibiotics, number of patients [2, 4]: 794
- ≧20% reduction of lesion area, number of patients [2, 4]: 845
- % Difference (95% CI), FDA primary endpoint ([2]; mITT): 0.2 (−3.3, 3.7) %
- % Difference (95% CI), ≧20% reduction of lesion area ([2]; mITT): 2.3 (−0.9, 5.4) %
- EMA primary endpoint: Investigator-assessed clinical cure ([2]; mITT): 81.2%
- EMA primary endpoint: Investigator-assessed clinical cure, number of patients [2, 4]: 794
- % Difference (95% CI), investigator-assessed clinical cure ([2]; mITT): 1.0 (−2.5, 4.5) %
- Efficacy versus vancomycin for ECE and PTE endpoints ([2]; combined SOLO trials): non-inferior to vancomycin
